In brackets after ≈: the same amount, converted by molar mass.
Columns and labels:
HepG2 = assay: Cytotoxicity against Homo sapiens (human) HepG2 cells after 3 days by MTT assay; format: functional, cell-based
A549 = assay: Cytotoxicity against Homo sapiens (human) A549 cells after 3 days by MTT assay; format: functional, cell-based
[1] = Cytotoxicity against Homo sapiens (human) HuCCa1 cells after 3 days by crystal violet staining; format: functional, cell-based, HuCC-A1
MOLT-3 = assay: Cytotoxicity against Homo sapiens (human) MOLT3 cells after 3 days by crystal violet staining; format: functional, cell-based; settings: MOLT-3, 72 h
[2] = tested on: Radical scavenging activity; assay: Antioxidant activity assessed as DPPH radical scavenging activity at 300 ug/mL after 30 min; format: functional
[3] = Antioxidant activity assessed as superoxide radical scavenging activity at 300 ug/mL by NBT reduction assay; format: functional
[4] = Homo sapiens, HepG2, 72 h, read-out: IC50
[5] = Homo sapiens, A549, 72 h, read-out: IC50
[6] = Homo sapiens, HuCC-A1, 72 h, read-out: IC50

Row | SMILES | IC50 (HepG2; [4]) [µg/mL] | IC50 (A549; a549) | IC50 ([1]; hucc-a1) | IC50 (MOLT-3) [µg/mL] | Activity [2] [%] | Activity [3] [%] | IC50 (A549; [5]) [µg/mL] | IC50 [1, 6] [µg/mL] | IC50 (HepG2; hepg2)
1 | Cc1cccnc1SC12CC3CC(CC(C3)C1)C2 | 30 (≈ 116 µM) | Not Active | Not Active | 33.3 (≈ 128 µM) | 19.6 | 10.8 | – | – | –
2 | c1ccc(-c2ccnc(SC34CC5CC(CC(C5)C3)C4)c2)cc1 | 46.5 (≈ 145 µM) | Not Active | Not Active | 31.1 (≈ 96.7 µM) | 6.95 | 32 | – | – | –
3 | c1ccc(-c2ccc(SC34CC5CC(CC(C5)C3)C4)cn2)cc1 | – | – | – | – | 8.77 | 31.6 | – | – | –
4 | c1ccc(-c2cccnc2SC23CC4CC(CC(C4)C2)C3)cc1 | – | – | – | – | 11.1 | 26.7 | – | – | –
5 | c1ccc(-c2ccncc2SC23CC4CC(CC(C4)C2)C3)cc1 [3-(1-ADAMANTYLTHIO)-4-PHENYLPYRIDINE] | 21.5 (≈ 66.9 µM) | – | – | 8.02 (≈ 24.9 µM) | 12.2 | 37.5 | 24 (≈ 74.7 µM) | 29 (≈ 90.2 µM) | –
6 | c1ccc(-c2cc(SC34CC5CC(CC(C5)C3)C4)ccn2)cc1 [4-(1-ADAMANTYLTHIO)-2-PHENYLPYRIDINE] | – | – | – | 28.6 (≈ 88.8 µM) | 30.2 | 32.1 | 38 (≈ 118 µM) | 49 (≈ 152 µM) | Not Active
7 | Cc1cncc(SC23CC4CC(CC(C4)C2)C3)c1 [5-(1-ADAMANTYLTHIO)-3-PICOLINE] | 26.5 (≈ 102 µM) | – | – | 15.8 (≈ 61.1 µM) | 7.96 | 36.9 | 29 (≈ 112 µM) | 34 (≈ 131 µM) | –
8 | c1ccc(-c2cccc(SC34CC5CC(CC(C5)C3)C4)n2)cc1 [6-(1-ADAMANTYLTHIO)-2-PHENYLPYRIDINE] | 48.5 (≈ 151 µM) | – | Not Active | 32.2 (≈ 100 µM) | 7.37 | 25.9 | 44 (≈ 137 µM) | – | –
9 | c1ccc(-c2ccc(SC34CC5CC(CC(C5)C3)C4)nc2)cc1 [6-(1-ADAMANTYLTHIO)-3-PHENYLPYRIDINE] | – | – | Not Active | 32.5 (≈ 101 µM) | 10.6 | 18 | 44 (≈ 137 µM) | – | Not Active
10 | Cc1ccc(SC23CC4CC(CC(C4)C2)C3)nc1 [6-(1-ADAMANTYLTHIO)-3-PICOLINE] | – | Not Active | Not Active | 27.2 (≈ 105 µM) | 7.69 | 28.6 | – | – | Not Active
11 | COc1cccc2c1C(=O)c1c(O)c3c(c(O)c1C2=O)C[C@@](O)(C(=O)CO)C[C@@H]3O[C@H]1C[C@H](N)[C@H](O)[C@H](C)O1 [DOXORUBICIN] | 0.23 (≈ 0.423 µM) | – | – | – | – | – | 0.39 (≈ 0.718 µM) | 0.45 (≈ 0.828 µM) | –
12 | COc1cc([C@@H]2c3cc4c(cc3[C@@H](O[C@@H]3O[C@@H]5CO[C@@H](C)O[C@H]5[C@H](O)[C@H]3O)[C@H]3COC(=O)[C@H]23)OCO4)cc(OC)c1O [ETOPOSIDE] | 12 (≈ 20.4 µM) | – | – | 0.019 (≈ 0.0323 µM) | – | – | – | – | –
